Common to all, as to assay: DTP human tumour cell line panel, 48 h
The subject of assay [1] is BT-549.
In assay [2] the test system is CCRF-CEM.
The subject of assay [3] is COLO 205.
Assay [4] has as its system DU-145.
In assay [5] the test system is EKVX.
Assay [6] concerns HCT-15.
Assay [7] deals with HT-29.
In assay [8] the test system is Hs-578T.
In assay [9] the test system is IGROV-1.
Assay [10] concerns MDA-N.
Assay [11] deals with OVCAR-3.
Assay [12] has as its system OVCAR-5.
The subject of assay [13] is RXF 393.
Assay [14] concerns SK-MEL-2.
Assay [15] has as its system SK-MEL-5.
The subject of assay [16] is SK-OV-3.
Assay [17] relates to T47D.
In assay [18] the test system is UACC-257.
For assay [19], the system named is ACHN.
Assay [20] deals with RPMI-8226.

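Method: 48-hour compound exposure of cells in 96-well plates, five concentrations, linear interpolation of endpoints. GI50 = concentration required for 50% inhibition of growth.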 Calls of active or inactive are those of the source. No stated cut-off is given here; in the data, active = GI50 up to about 1.1 µM and inactive = higher.

Regarding `CCN1CCC(O)(/C=C/c2ccccc2C)C(C(=O)/C=C/c2ccccc2C)C1` (stereo unspecified), the GI50 in assay [1] is 2.84 µM (inactive); in [2], 1.85 µM (inactive); in assay [3], 1.64 µM (inactive); in assay [4] it was 1.79 µM (inactive); in assay [5] it was 4.06 µM (inactive); in [6], 1.56 µM. The GI50 was 2.63 µM (inactive) in assay [7]; 3.76 µM (inactive) in assay [8]; 3.62 µM (inactive) in assay [9]; 2.67 µM (inactive) in [10]; 2.25 µM (inactive) in assay [11]; 1.97 µM (inactive) in assay [12]. For the same compound, the GI50 in assay [13] is 1.92 µM (inactive); in assay [14] it was 2.33 µM (inactive); in assay [15], 1.56 µM (inactive); in assay [16], 6.14 µM (inactive); in assay [17] it was 1.85 µM (inactive); in assay [18], 2.9 µM (inactive).

Regarding `COc1cc(C2c3cc4c(cc3OC(N3CCCCC3)C2C)OCO4)cc(OC)c1OC` (stereo unspecified), the GI50 is 6.79 µM (inactive) in assay [19]; 18.9 µM (inactive) in assay [1]; 2.84 µM (inactive) in assay [2]; 3.02 µM (inactive) in assay [3]; 3.49 µM (inactive) in assay [4]; 10.3 µM (inactive) in assay [5]. The GI50 is 3.65 µM in [6]; 3.04 µM (inactive) in [7]; 2.09 µM (inactive) in assay [8]; 4.62 µM (inactive) in assay [9]; 0.723 µM (active) in assay [10]; 1.9 µM (inactive) in assay [11]. Further, the GI50 in [12] is 12.7 µM (inactive); in assay [20], 4.18 µM (inactive); in assay [13], 2.15 µM (inactive); in [14], 3.45 µM (inactive); in assay [15], 2.62 µM (inactive); in [16], 2.77 µM (inactive). The results for the GI50 in [17] and in assay [18] were 4.23 µM (inactive) and 12.3 µM (inactive), respectively.

On to `Cn1ccc(C(=O)NCCN(CCNC(=O)c2ccn(C)c(=O)c2O)CCNC(=O)c2ccn(C)c(=O)c2O)c(O)c1=O`, for which the GI50 in [19] is 74.6 µM (inactive); in assay [1], > 100 µM (inactive); in [2], > 100 µM (inactive); in [3] it was > 100 µM (inactive); in [4], > 100 µM (inactive); in assay [6], above 100 µM. In addition, the GI50 in assay [7] is > 100 µM (inactive); in [8], > 100 µM (inactive); in assay [9], > 100 µM (inactive); in assay [10] it was > 100 µM (inactive); in [11], > 100 µM (inactive); in assay [12], 29.9 µM (inactive). The GI50 in [20], in assay [13], in assay [14], in assay [15], in [16] and in [17] was > 100 µM (inactive) throughout. Besides, the GI50 in assay [18] is > 100 µM (inactive).

As for `CC(=O)OCCCCn1cnc2nc(Nc3ccccc3)nc(Cl)c21`, the GI50 in assay [19] was 60.7 µM (inactive); in assay [1], 26.9 µM (inactive); in [2] it was 78.2 µM (inactive); in assay [3] it was > 100 µM (inactive); in assay [5] it was > 100 µM (inactive); in assay [6] it was 73.1 µM. Further, the GI50 in assay [7] is 91.6 µM (inactive); in [8] it was 36.2 µM (inactive); in assay [9], > 100 µM (inactive); in [10], 31.2 µM (inactive); in [11], 55.1 µM (inactive); in assay [20], > 100 µM (inactive). Further, the GI50 is 68.7 µM (inactive) in [13]; > 100 µM (inactive) in assay [14]; 42.2 µM (inactive) in assay [15]; 97.3 µM (inactive) in assay [16]; 56.9 µM (inactive) in assay [17]; 58.7 µM (inactive) in assay [18].

On to `COc1ccc(/C=C/c2cnccn2)cc1OC`, for which the GI50 in assay [19] was > 10 µM (inactive); in assay [1], > 10 µM (inactive); in assay [3], > 10 µM (inactive); in assay [4], > 10 µM (inactive); in [5], > 10 µM (inactive); in assay [6], above 10 µM. Besides, the GI50 in assay [7], in [8], in assay [9], in [10], in [11] and in assay [12] was > 10 µM (inactive) throughout. Moreover, the GI50 in [13], in [14], in assay [15], in assay [16], in [17] and in [18] was > 10 µM (inactive) each time.

For `Nc1ncnc2c1ncn2C=C=CCO`, the GI50 in assay [1] is > 100 µM (inactive); in [2], > 100 µM (inactive); in assay [3], > 100 µM (inactive); in assay [4], > 100 µM (inactive); in [6], above 100 µM; in assay [7], > 100 µM (inactive). Further, the GI50 in [8], in [10], in assay [11], in assay [12], in assay [20] and in assay [13] was > 100 µM (inactive) each time. In addition, the GI50 in assay [14], in assay [15], in [17] and in [18] was > 100 µM (inactive) throughout.

With `Cc1c2cc[n+](C)cc2c(C)c2c1[nH]c1ccc(O)cc12` [ELLIPTINIUM ACETATE], the GI50 in [1] was 3.71 µM (inactive); in assay [2], 4.82 µM (inactive); in assay [3] it was 21.8 µM (inactive); in assay [4], 5.46 µM (inactive); in assay [5] it was 38.2 µM (inactive); in [6] it was 50.4 µM. The GI50 in [7] was 62.4 µM (inactive); in [8], 0.387 µM (active); in assay [9] it was 16.6 µM (inactive); in assay [10], 47.8 µM (inactive); in [11] it was 23.9 µM (inactive); in assay [12] it was 71.9 µM (inactive). In addition, the GI50 is 36.7 µM (inactive) in [20]; 62.5 µM (inactive) in assay [13]; 66.2 µM (inactive) in assay [14]; 7.89 µM (inactive) in assay [15]; 46.5 µM (inactive) in assay [16]; 0.251 µM (active) in [17]. The GI50 in assay [18] was 64 µM (inactive).

Turning to `C(/C=N/c1ccccc1)=C(/Nc1ccccc1)C12CC3CC(CC(C3)C1)C2`, the GI50 in assay [19] was 13.6 µM (inactive); in assay [1] it was 16.6 µM (inactive); in [2], 2.72 µM (inactive); in assay [3], 15.9 µM (inactive); in assay [4], 19.3 µM (inactive); in assay [5], 20.7 µM (inactive). For the same compound, the GI50 in assay [6] is 14.1 µM; in assay [7], 12.6 µM (inactive); in assay [8], 37.5 µM (inactive); in assay [9], 17.6 µM (inactive); in [10], 13.8 µM (inactive); in [11], 6.85 µM (inactive). For the same compound, the GI50 in assay [12] was 15.2 µM (inactive); in assay [13], 17.1 µM (inactive); in assay [15], 14.7 µM (inactive); in [16], 16.4 µM (inactive); in [17], 15.3 µM (inactive); in assay [18], 27.9 µM (inactive).

In general, GI50 refers to the concentration giving 50% growth inhibition.
